In patent US8574856B2, “Methods for determining the efficiency of a therapeutic” (Companion Diagnostics Inc., priority 2010, dated 2013):
Values joined by “and” are separate entries in the source; they are usually repeats but may differ in a detail not shown here. Equal values may be shown once.

Columns and labels:
[1] = target: T1, α-amylase (Homo sapiens, UniProt P0DUB6); conditions: 100% saliva samples; FIG. 15
T1 sequence (P0DUB6 16-511): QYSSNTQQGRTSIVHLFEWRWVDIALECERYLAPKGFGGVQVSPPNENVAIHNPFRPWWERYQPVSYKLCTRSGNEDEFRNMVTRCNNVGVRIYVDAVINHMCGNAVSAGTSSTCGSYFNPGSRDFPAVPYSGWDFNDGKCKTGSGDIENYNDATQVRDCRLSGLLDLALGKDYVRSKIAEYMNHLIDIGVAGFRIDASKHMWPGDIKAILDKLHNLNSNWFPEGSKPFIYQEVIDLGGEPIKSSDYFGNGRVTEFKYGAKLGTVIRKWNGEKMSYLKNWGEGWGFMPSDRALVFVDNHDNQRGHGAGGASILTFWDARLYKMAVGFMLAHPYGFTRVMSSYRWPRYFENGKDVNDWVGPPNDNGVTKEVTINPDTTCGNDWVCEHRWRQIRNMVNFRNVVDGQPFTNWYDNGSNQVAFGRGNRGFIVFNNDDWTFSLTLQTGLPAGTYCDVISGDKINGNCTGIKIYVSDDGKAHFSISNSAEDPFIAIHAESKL
Source text: Enzymatic activity of α-amylase on the substrate yields 2-chloro-p-nitrophenol, which can be measured spectrophotometrically at 405 nm. The amount of α-amylase activity present in the experimental sample is directly proportional to the increase in absorbance at 405 nm.

[2] = target: T1, α-amylase; assay: α-Amylase inhibition saliva screening, dilute (3.5%) saliva; assay type: biochemical; conditions: for absorbance at 405 nm, Ave / absorbance at 405 nm, single readings: test compound prepared at 5,000 ppm, 37° C.; for α-Amylase Inhibitor Activity: dilute (3.5%) saliva, FIG. 14
Source text: Further details of these five compounds may also be seen in Table 4.

[3] = tested on: galactose oxidase; conditions: dilute (3.5%) saliva; FIG. 17
[4] = target: T2, lysozyme (Homo sapiens, UniProt P61626); assay: Lysozyme inhibition saliva screening, dilute (3.5%) saliva; assay type: biochemical; conditions: FIG. 16
T2 sequence (P61626 19-148): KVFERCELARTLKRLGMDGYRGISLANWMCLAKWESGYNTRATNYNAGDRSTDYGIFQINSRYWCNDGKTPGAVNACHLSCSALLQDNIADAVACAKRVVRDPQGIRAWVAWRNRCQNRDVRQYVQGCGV
Source text: Further details of these five compounds may also be seen in Table 5.

[5] = tested on: peroxidase; assay: Peroxidase assay in saliva (Amplex Red); assay type: biochemical; conditions: 500 ppm; pooled or unpooled saliva; 30 minutes; FIGS. 30-33
Experimental: To determine the effect of various GRAS compounds as inhibitors of peroxidase activity, a standard assay using Amplex® Red (Life Technologies), which releases a fluorescent oxidation product.
The test compounds, such as GRAS materials or cocktails of same, were prepared at a concentration of 500 ppm in distilled water. For the assay, 50 μl samples of test compounds were mixed with 20-30 μl of saliva (either “pooled” or “unpooled”) prior to the addition of Amplex® Red. […] Reactions were allowed to run for 30 minutes during these assays.

Row | Molecule | inhibition of α-Amylase [1] | absorbance at 405 nm, Ave ([2]; 0 min) | absorbance at 405 nm, Ave ([2]; 5 min) | absorbance at 405 nm, Ave ([2]; 15 min) | α-Amylase Inhibitor Activity [2] | Galactose Oxidase Inhibitor Activity [3] | Lysozyme Inhibitor Activity [4] | peroxidase inhibition [5] | other results
1 | Aluminum sulfate hydrate [CDI-34] | shown to inhibit α-Amylase | 0.40 | 0.50 | 0.56 | shown to have α-Amylase Inhibitor Activity | – | – | – | absorbance at 405 nm, single readings ([2]; 0 min, sulfate hydrate): 0.40 and 0.36 and 0.45; absorbance at 405 nm, single readings ([2]; 5 min, sulfate hydrate): 0.49 and 0.50 and 0.52; absorbance at 405 nm, single readings ([2]; 15 min, sulfate hydrate): 0.53 and 0.61 and 0.54 and 0.56
2 | O=C(O)c1ccccc1 [CDI-40, Benzoic acid] | – | – | – | – | – | shown to have Galactose Oxidase Inhibitor Activity | shown to have Lysozyme Inhibitor Activity | – | –
3 | Aluminum potassium sulfate dodecahydrate [CDI-42] | shown to inhibit α-Amylase | 0.92 | 1.85 | 2.29 | shown to have α-Amylase Inhibitor Activity | shown to have Galactose Oxidase Inhibitor Activity | – | showed significant peroxidase inhibition capabilities | absorbance at 405 nm, single readings ([2]; 0 min): 0.80 and 0.90 and 0.84; absorbance at 405 nm, single readings ([2]; 5 min): 1.80
4 | COc1ccc(O)c(C(C)(C)C)c1 [CDI-39, 3-tert--butyl-hydroxyanisole] | – | – | – | – | – | shown to have Galactose Oxidase Inhibitor Activity | – | showed significant peroxidase inhibition capabilities | –
5 | CC(=O)O [CDI-47, Acetic acid] | – | – | – | – | – | shown to have Galactose Oxidase Inhibitor Activity | shown to have Lysozyme Inhibitor Activity | – | –
6 | Cn1c(=O)c2c(ncn2C)n(C)c1=O [CDI-33, Caffeine] | – | – | – | – | – | – | – | showed significant peroxidase inhibition capabilities | –
